In this assay the test system is Mut-p53. Briefly: Total activity score over combined assays (Table 8). Set-up: scale not given here. The settings on record: for Activity Score: Table 10 summary of activity of the peptides tested; for AS (Activity Score): total score of Table 7. The source says: Several alternative and complementary methods to screen lead peptide candidates for conformational and functional effects on Mut-p53 were employed. For increased penetration of peptide across cell membranes each peptide contains 3-6 Arginine residues either as part of its sequence or added either at its N-terminus or its C-terminus. […] In-vitro based assays for evaluation were first performed, such as ELISA for assessment of p53 conformation and sequence-specific DNA binding of p53.

Where no end group is shown, it is not given here. The star is where a group is joined. Myristoyl = CCCCCCCCCCCCCC(=O)*

Take pCAP151 (CILRLWWRRRRRRRRRRR): the “Activity Score” value was determined as 33 and the “AS (Activity Score)” value is given as 33. With pCAP119 (HSAHHTM), the “Activity Score” value came to 0 and the “AS (Activity Score)” value stood at 0.

With pCAP101 (IRFILIR), the “Activity Score” value stood at 3 and the “AS (Activity Score)” value is given as 3. In the case of pCAP306 (Myristoyl-RLIRIRILM), the “Activity Score” value was determined as 6. pCAP63 (HNHHHSQHTPQH): the “Activity Score” value turned out to be 9 and the “AS (Activity Score)” value was determined as 9. On to pCAP2 (VWVHDSCHANLQNYRNYLLP), for which the “Activity Score” value worked out at 2 and the “AS (Activity Score)” value was 2. Turning to pCAP147 (ATQHHYIKRRRRRRRRRRR), the “Activity Score” value was 10 and the “AS (Activity Score)” value stood at 10. On to pCAP155 (IRGRIIRRRRRRRRRR), for which the “Activity Score” value came to 41 and the “AS (Activity Score)” value amounted to 41. As to pCAP37 (KLQVPIK), the “Activity Score” value is recorded as 6 and the “AS (Activity Score)” value is reported as 6. pCAP167 (FILIR): the “Activity Score” value amounted to 5 and the “AS (Activity Score)” value turned out to be 5. As to pCAP166 (KPPER), the “Activity Score” value was found to be 0 and the “AS (Activity Score)” value was determined as 0. As to pCAP176 (HPWTH), the “Activity Score” value amounted to 0 and the “AS (Activity Score)” value worked out at 0.

In the case of pCAP41 (WHHRQQIPRPLE), the “Activity Score” value is 2 and the “AS (Activity Score)” value was determined as 2. Consider pCAP123 (GLCRIIL), for which the “Activity Score” value worked out at 3 and the “AS (Activity Score)” value is 3. Turning to pCAP254 (NHFDYDTIELDTAGEYSRRR), the “Activity Score” value came to 0. On to pCAP276 (RRVDIHDGQRR), for which the “Activity Score” value was determined as 3. With pCAP256 (RTLHGRRVILHEGGHSISDLK), the “Activity Score” value was 2.

Turning to pCAP138 (YPTQGHLRRRRRRRRRRRR), the “Activity Score” value worked out at 11 and the “AS (Activity Score)” value stood at 11. As to pCAP205 (RCRNRKKEKTECLQKESEK), the “Activity Score” value turned out to be 5.

Take pCAP13 (HFSHHLK): the “Activity Score” value is 4 and the “AS (Activity Score)” value amounted to 4. With pCAP171 (PHHHS), the “Activity Score” value was 0 and the “AS (Activity Score)” value is recorded as 0. Take pCAP149 (FPGHTIHRRRRRRRRRRR): the “Activity Score” value was determined as 13 and the “AS (Activity Score)” value stood at 13. Consider pCAP24 (LRCLLLLIGRVG), for which the “Activity Score” value stood at 23 and the “AS (Activity Score)” value was found to be 23. pCAP285 (RRDIIRHNAHS): the “Activity Score” value was 4. pCAP284 (Myristoyl-RHDTHNAHIRR): the “Activity Score” value is 6. As for pCAP177 (HFSHH), the “Activity Score” value was 0 and the “AS (Activity Score)” value amounted to 0. Consider pCAP137 (GAMHLPWHMGTRRRRRR), for which the “Activity Score” value is recorded as 8 and the “AS (Activity Score)” value is reported as 8. pCAP66 (THFSHHLKGGGRRQRRRP): the “Activity Score” value came out at 2 and the “AS (Activity Score)” value was 2. For pCAP295 (LDLYHPRERR), the “Activity Score” value was 3. For the substance pCAP247 (RRITEIRGRTGKTTLTYIED), the “Activity Score” value stood at 6. As for pCAP117 (DHSKFVPLFVRQ), the “Activity Score” value is given as 3 and the “AS (Activity Score)” value is on record as 3.

For the substance pCAP16 (LPNPPERHH), the “Activity Score” value is 24 and the “AS (Activity Score)” value was 24. pCAP305 (IREFDPRRIR): the “Activity Score” value is given as 4. Regarding pCAP109 (GPIKHHLQHH), the “Activity Score” value came to 4 and the “AS (Activity Score)” value was found to be 4. Take pCAP299 (ILQPDFLIRPE): the “Activity Score” value came to 2. pCAP154 (LRCLLLLIGRVGRKKRRQRR): the “Activity Score” value came to 57 and the “AS (Activity Score)” value is reported as 57. For pCAP60 (SFILFIRRGRLG), the “Activity Score” value was determined as 40 and the “AS (Activity Score)” value was 40.

As to pCAP232 (RSRSSHLRDHERTHT), the “Activity Score” value is listed as 0.

Turning to pCAP9 (TIIHREDEDEIEW), the “Activity Score” value is on record as 17 and the “AS (Activity Score)” value amounted to 17. As to pCAP174 (HSTPHP), the “Activity Score” value was determined as 54 and the “AS (Activity Score)” value is reported as 54. In the case of pCAP139 (MHPPDWYHHTPKRRRRRR), the “Activity Score” value stood at 12 and the “AS (Activity Score)” value came to 12. pCAP11 (EWKERLDKEFSLSVYQKMKF): the “Activity Score” value came out at 16 and the “AS (Activity Score)” value came to 16. On to pCAP99 (GLHLFTTDRQGW), for which the “Activity Score” value is listed as 7 and the “AS (Activity Score)” value came out at 7. For the substance pCAP50 (WSEYDIPTPQIPP), the “Activity Score” value was 0 and the “AS (Activity Score)” value was determined as 0. Turning to pCAP10 (VAEFAQSIQSRIVEWKERLD), the “Activity Score” value is reported as 8 and the “AS (Activity Score)” value was 8. Regarding pCAP44 (VPHIHEFT), the “Activity Score” value came out at 16 and the “AS (Activity Score)” value was 16. As for pCAP91 (STTHIHA), the “Activity Score” value turned out to be 7 and the “AS (Activity Score)” value came to 7. As to pCAP278 (RRYDTVIDDIEYRR), the “Activity Score” value was 6. Turning to pCAP55 (FLLPEPDENTRW), the “Activity Score” value is 8 and the “AS (Activity Score)” value came to 8. With pCAP26 (DEFHSFYTARQTG), the “Activity Score” value stood at 0 and the “AS (Activity Score)” value is 0.

pCAP135 (HTDSHPHHHHPHRRRRR): the “Activity Score” value is listed as 10 and the “AS (Activity Score)” value is 10. For pCAP323 (Myristoyl-DLHTIHIPRDRR), the “Activity Score” value was found to be 0. With pCAP95 (HQIHRNHTY), the “Activity Score” value was 8 and the “AS (Activity Score)” value stood at 8. As for pCAP291 (DLQYDFPRIRR), the “Activity Score” value was 0. Consider pCAP48 (IPMNFTSHSLRQ), for which the “Activity Score” value turned out to be 13 and the “AS (Activity Score)” value is on record as 13.

On to pCAP72 (SCRCRLRRRRRRRRRR), for which the “Activity Score” value is listed as 5 and the “AS (Activity Score)” value was 5. As to pCAP36 (YPTQGHLR), the “Activity Score” value is recorded as 39 and the “AS (Activity Score)” value is on record as 39. Consider pCAP269 (DEPLPPPERRR), for which the “Activity Score” value was 0.

pCAP106 (LIRRCSLQR): the “Activity Score” value is listed as 8 and the “AS (Activity Score)” value is recorded as 8. For pCAP211 (PDSEPPRMELRRR), the “Activity Score” value worked out at 0.

Consider pCAP275 (Myristoyl-MTYSDMPRRIITDEDRRR), for which the “Activity Score” value worked out at 6. Turning to pCAP237 (HTIHVHYPGNRQPNPPLILQR), the “Activity Score” value came out at 12.

With pCAP242 (Myristoyl-RRLIVRILKLPNPPER), the “Activity Score” value is reported as 67. Further, the “PCR, activity score” value (Table 8, head span not shown) came out at 6. Further, the “Conformation, activity score” value (Table 8, the 14 score columns c4-c17 stand under the heads Conformation, DNA binding, Viability, PCR) amounted to 4. As to pCAP1 (EVTFRHSVV), the “Activity Score” value stood at 32 and the “AS (Activity Score)” value is on record as 32.

As to pCAP56 (ATPFHQT), the “Activity Score” value is recorded as 5 and the “AS (Activity Score)” value is on record as 5.

For the substance pCAP45 (HDTHNAHVG), the “Activity Score” value is 0 and the “AS (Activity Score)” value is on record as 0. As to pCAP4 (EHDFEVRGDVVNGRNHQGPK), the “Activity Score” value was 2 and the “AS (Activity Score)” value is 2.

Turning to “pCAP216 (Myristoyl-HFNHYTFESTCRRRRC; cysteine pairing not given here)”, the “Activity Score” value is given as 2. As to pCAP142 (TLYLPHWHRHRRRRRRRRRR), the “Activity Score” value is on record as 14 and the “AS (Activity Score)” value was found to be 14.

In the case of pCAP88 (SYQTMQP), the “Activity Score” value was 6 and the “AS (Activity Score)” value came out at 6. As to pCAP12 (GGGGGGGGGGGG), the “Activity Score” value is 0 and the “AS (Activity Score)” value is reported as 0. As for pCAP89 (SILTLSCRCRLRLWR), the “Activity Score” value is recorded as 8 and the “AS (Activity Score)” value is 8. As to pCAP92 (FPHLVSSLTT), the “Activity Score” value was 7 and the “AS (Activity Score)” value was found to be 7. As for pCAP169 (SFILI), the “Activity Score” value came out at 0 and the “AS (Activity Score)” value was found to be 0.

As to pCAP18 (SHQVHTHHNN), the “Activity Score” value was determined as 6 and the “AS (Activity Score)” value was 6. Take pCAP29 (KPDSPRV): the “Activity Score” value is reported as 0 and the “AS (Activity Score)” value is recorded as 0.

In the case of pCAP179 (ILVI), the “Activity Score” value is on record as 0 and the “AS (Activity Score)” value was found to be 0. On to pCAP292 (YDELYQKEDPHRRR), for which the “Activity Score” value came out at 0. Take pCAP170 (IRILM): the “Activity Score” value worked out at 27 and the “AS (Activity Score)” value was 27.

As to pCAP71 (WTLSNYLGGRKKRRQRRRR), the “Activity Score” value came to 2 and the “AS (Activity Score)” value came to 2. Regarding pCAP81 (VRCIFRGIWVRL), the “Activity Score” value was determined as 2 and the “AS (Activity Score)” value was 2.

Take pCAP283 (RRPADQISYLHPPER): the “Activity Score” value was determined as 0. Consider pCAP47 (TLYLPHWHRH), for which the “Activity Score” value was 14 and the “AS (Activity Score)” value amounted to 14. With pCAP140 (TDSHSHHRRRRRRRRRRR), the “Activity Score” value is given as 6 and the “AS (Activity Score)” value amounted to 6. In the case of pCAP158 (SFILFIRRGRLGRGDR), the “Activity Score” value is recorded as 18 and the “AS (Activity Score)” value stood at 18. For the substance pCAP233 (SHYHTPQNPPSTRRR), the “Activity Score” value is given as 11. On the same count and under the same terms, next, pCAP307 (HDPRIIRIR): 2; pCAP265 (EEPDRQPSGKRGGRKRRSR): 3.

As to pCAP132 (NHPWQFPNRWTRRRRRR), the “Activity Score” value came out at 7 and the “AS (Activity Score)” value was determined as 7.

These data come from patent publication US11028127B2, “Peptides capable of reactivating p53 mutants” (Yeda Research and Development Co. Ltd., priority 2013, dated 2021).
